Experimental data taken from US20220265845A1, “AMINOTHIOLESTER COMPOUNDS AND USES THEREOF” (ADVANCED BIODESIGN, priority 2019, published 2022).

Experiments:
Experiment in all cases: Kinetic parameters and inhibition type from Kobs versus inhibitor concentration plots
Type in all cases: biochemical
[1] = biological target: T1, Human recombinant ALDH1A1 (Homo sapiens, UniProt P00352); details: for kinact/KI: from Kobs versus [I] plots
T1 construct: purchased Creative BioMart, NY, USA
T1 sequence (P00352 1-501): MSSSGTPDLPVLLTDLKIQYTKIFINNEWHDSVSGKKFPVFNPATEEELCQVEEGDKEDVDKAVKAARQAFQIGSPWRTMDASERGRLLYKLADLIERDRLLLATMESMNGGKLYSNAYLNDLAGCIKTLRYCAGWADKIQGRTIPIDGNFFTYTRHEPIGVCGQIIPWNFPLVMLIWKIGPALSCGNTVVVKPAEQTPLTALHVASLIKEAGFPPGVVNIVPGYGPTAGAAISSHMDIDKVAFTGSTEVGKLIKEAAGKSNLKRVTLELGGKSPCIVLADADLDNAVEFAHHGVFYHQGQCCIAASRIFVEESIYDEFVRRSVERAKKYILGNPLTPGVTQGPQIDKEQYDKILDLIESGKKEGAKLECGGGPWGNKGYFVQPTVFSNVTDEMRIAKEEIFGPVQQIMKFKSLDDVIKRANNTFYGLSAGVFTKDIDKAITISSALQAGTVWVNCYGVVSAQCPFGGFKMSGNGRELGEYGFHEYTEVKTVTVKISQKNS
Procedure: (§1) The kinetic data are expressed as the mean±standard error from three independent determination. Kinact/Ki was determined from Kobs versus concentration of the inhibitor [I] plots. […] The Kobs were obtained from negative exponential fit using non-linear regression program GraFit 5.0 (Erithacus software).
(§2) To determine the inhibition mechanisms of the tested compounds for each isoenzyme, the corresponding Kobs were calculated as mentioned above, plotting product concentration vs time incubation of the enzymes with the test compounds at 300 μM, 200 μM, 100 μM, 50 μM, 20 μM and 10 μM. The kobs were obtained for each concentration of inhibitor tested, from the negative exponential fit using non-linear regression program GraFit 5.0 (Erithacus software). Finally, the kinetic parameter of kinact/KI was determined from the plot of kobs versus the corresponding concentration of inhibitor. The slope of the linear fit of data indicated the rate constant in μM^−1·min^−1.

[2] = biological target: T2, Human recombinant ALDH1A2 (Homo sapiens, UniProt O94788); details: from Kobs versus [I] plots
T2 construct: purchased Creative BioMart, NY, USA
T2 sequence (O94788 1-518): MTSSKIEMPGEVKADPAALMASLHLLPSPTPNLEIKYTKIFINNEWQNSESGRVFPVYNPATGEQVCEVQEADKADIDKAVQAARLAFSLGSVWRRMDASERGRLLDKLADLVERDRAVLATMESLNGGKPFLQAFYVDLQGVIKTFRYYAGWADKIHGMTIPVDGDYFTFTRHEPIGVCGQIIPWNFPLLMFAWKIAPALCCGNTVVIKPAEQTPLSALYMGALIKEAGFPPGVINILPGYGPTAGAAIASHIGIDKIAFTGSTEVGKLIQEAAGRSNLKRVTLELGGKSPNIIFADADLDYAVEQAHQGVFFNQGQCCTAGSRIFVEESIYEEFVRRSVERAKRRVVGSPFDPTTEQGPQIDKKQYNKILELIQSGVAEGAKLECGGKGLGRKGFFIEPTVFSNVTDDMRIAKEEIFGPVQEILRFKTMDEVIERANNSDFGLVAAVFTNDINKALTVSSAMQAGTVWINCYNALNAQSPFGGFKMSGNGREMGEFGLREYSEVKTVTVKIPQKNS
Procedure: as §1, §2

[3] = biological target: T3, Human recombinant ALDH1A3 (Homo sapiens, UniProt P47895); details: for Specificity of interaction with ALDH1A3: compared with DIMATE; for kinact/KI: from Kobs versus [I] plots
T3 construct: purchased Creative BioMart, NY, USA
T3 sequence (P47895 1-512): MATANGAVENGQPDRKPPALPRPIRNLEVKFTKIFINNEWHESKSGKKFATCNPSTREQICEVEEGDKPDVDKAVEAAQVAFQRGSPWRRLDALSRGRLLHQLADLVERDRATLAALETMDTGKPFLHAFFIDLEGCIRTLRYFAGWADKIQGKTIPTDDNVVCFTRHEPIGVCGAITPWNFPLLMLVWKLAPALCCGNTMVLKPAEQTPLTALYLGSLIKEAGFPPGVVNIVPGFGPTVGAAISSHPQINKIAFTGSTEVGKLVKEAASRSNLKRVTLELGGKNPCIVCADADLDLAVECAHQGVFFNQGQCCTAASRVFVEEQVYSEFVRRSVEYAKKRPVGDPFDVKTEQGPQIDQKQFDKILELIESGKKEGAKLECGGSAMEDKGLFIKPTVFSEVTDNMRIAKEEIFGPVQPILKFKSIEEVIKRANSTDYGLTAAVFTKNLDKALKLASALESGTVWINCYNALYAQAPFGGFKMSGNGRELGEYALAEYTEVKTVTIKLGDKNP
Procedure: as §1, §2

[4] = biological target: T4, Human recombinant ALDH2 (Homo sapiens, UniProt P05091); details: from Kobs versus [I] plots
T4 construct: purchased Creative BioMart, NY, USA
T4 sequence (P05091 18-517): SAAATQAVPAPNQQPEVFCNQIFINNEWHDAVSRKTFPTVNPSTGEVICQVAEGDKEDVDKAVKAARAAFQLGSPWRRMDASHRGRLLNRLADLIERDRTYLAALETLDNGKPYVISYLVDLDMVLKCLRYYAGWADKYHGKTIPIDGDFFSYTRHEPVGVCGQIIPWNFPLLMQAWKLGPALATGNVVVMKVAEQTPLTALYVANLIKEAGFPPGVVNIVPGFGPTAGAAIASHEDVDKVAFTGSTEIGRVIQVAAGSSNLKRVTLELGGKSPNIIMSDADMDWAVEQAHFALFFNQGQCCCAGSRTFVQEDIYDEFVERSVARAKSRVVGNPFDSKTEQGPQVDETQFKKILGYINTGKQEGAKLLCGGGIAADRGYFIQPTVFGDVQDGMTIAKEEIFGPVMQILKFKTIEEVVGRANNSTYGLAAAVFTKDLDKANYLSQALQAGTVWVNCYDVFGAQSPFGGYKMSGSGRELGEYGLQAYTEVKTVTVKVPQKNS
Procedure: as §1, §2

[5] = biological target: T5, Human recombinant ALDH3A1 (Homo sapiens, UniProt P30838); details: for Ki: printed in the Kinact/Ki column in place of Kinact/Ki
T5 sequence (P30838 1-453): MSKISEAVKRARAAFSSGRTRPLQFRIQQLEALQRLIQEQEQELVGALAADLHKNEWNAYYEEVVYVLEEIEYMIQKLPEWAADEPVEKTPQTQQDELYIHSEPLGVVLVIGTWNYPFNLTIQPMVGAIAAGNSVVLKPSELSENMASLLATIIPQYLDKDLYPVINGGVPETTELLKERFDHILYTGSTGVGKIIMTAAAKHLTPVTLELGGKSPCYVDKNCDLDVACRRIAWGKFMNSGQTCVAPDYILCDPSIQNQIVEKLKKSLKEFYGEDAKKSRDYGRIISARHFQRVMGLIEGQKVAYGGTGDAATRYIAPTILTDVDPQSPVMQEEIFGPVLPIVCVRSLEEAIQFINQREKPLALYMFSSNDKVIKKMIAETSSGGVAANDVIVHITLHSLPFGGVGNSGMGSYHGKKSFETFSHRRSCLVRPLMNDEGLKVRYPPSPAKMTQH
Procedure: as §1, §2

Compound | kinact/KI [1] [M⁻¹ s⁻¹] | kinact/KI [2] [M⁻¹ s⁻¹] | ALDH1A3 Inhibition Type [3] | Specificity of interaction with ALDH1A3 [3] | kinact/KI [3] [M⁻¹ s⁻¹] | kinact/KI [4] [M⁻¹ s⁻¹] | Ki [5] [µM] | ALDH1A1 Inhibition Type [1] | kinact/KI ([5]; from Kobs versus [I] plots) [M⁻¹ s⁻¹]
CSC(=O)C#CC(C)(C)N(C)CCOCc1ccccc1 [Example 3, S-methyl 4-[2-benzyloxyethyl(methyl)amino]-4-methyl-pent-2-ynethioate] | 8.33 | 1670 | specific | higher specificity | 642 | 9 | 233 | – | –
CSC(=O)C#CC(C)(C)N(C)C [DIMATE, S-methyl 4-(dimethylamino)-4-methylpent-2-ynethioate, reference compound] | 15 | 85 | non-specific affinity label | – | 28.3 | 7.08 | 253 | specific | –
CSC(=O)C#CC(C)(C)N(C)CCOCc1ccc(C)c(C)c1 [Example 5, S-methyl 4-[2-[(3,4-dimethylphenyl)methoxy]ethyl-methyl-amino]-4-methyl-pent-2-ynethioate] | 61.7 | 352 | specific | higher specificity | 197 | 40.8 | – | – | 5
